Measurements as given in patent US20250025383A1, “EMOLLIENT COMPOSITION IN EMULSION FORM” (PIERRE FABRE MEDICAMENT, priority 2018, published 2025).

What was measured:
[1] = preservative not tested (nt) in emulsion; cited from earlier work
[2] = Measurement of consistency (TAXT+ texture analyser); type: physicochemical; conditions: ingredient added to glycerol/Vaseline/liquid paraffin emulsion
Description: The measurement of consistency is carried out at room temperature (around 20° C.) in a 250 mL glass jar filled to 200 g. The measurement is performed using a TAXT+type texture analyser (Swantec). The consistency of the product is represented by the maximum resistance force of the probe in the product, which is directly proportional to the measured mass. The consistency value is expressed in g.
• 250 g glass jar filled to 200 g • P25 steel cylinder
• Pre-speed: 4 mm/s • Speed: 8 mm/s • Post-speed: 8 mm/s • Displacement: 20 mm • Triggering threshold: 5 g
Fill the container (glass jar) without introducing air into the product.
Tap the jar so as to pack down the cream and to obtain the smoothest surface possible.
Maintain the jar closed […] before carrying out the measurement.

Row | SMILES | Comments/other aspects [1] | Effect on the consistency and/or the viscosity of the emulsion [2]
1 | O.O.O.O.O.O.O.O.O.O.[Na+].[Na+].[O-]B1OB2OB([O-])OB(O1)O2 [Sodium borate] | irritant | –
2 | OB(O)O [Boric acid] | irritant | –
3 | CCCCC(CC)COCC(O)CO (stereo not shown) [ethylhexyl glycerin] | – | fluidification of the formula
4 | CCCCC(O)CO (stereo not shown) [1,2 hexanediol] | – | fluidification of the formula
